We go through 3 compounds from US20090181972A1, “Novel Inhibitors of Cysteine Proteases, the Pharmaceutical Compositions Thereof and their Therapeutic Applications” (priority 2005, published 2009).

For the experiment, the target named is T1, SENP1 (Homo sapiens, UniProt Q9P0U3).
T1 construct: made in house; host or cells: E. coli BL21
T1 sequence (Q9P0U3 1-644): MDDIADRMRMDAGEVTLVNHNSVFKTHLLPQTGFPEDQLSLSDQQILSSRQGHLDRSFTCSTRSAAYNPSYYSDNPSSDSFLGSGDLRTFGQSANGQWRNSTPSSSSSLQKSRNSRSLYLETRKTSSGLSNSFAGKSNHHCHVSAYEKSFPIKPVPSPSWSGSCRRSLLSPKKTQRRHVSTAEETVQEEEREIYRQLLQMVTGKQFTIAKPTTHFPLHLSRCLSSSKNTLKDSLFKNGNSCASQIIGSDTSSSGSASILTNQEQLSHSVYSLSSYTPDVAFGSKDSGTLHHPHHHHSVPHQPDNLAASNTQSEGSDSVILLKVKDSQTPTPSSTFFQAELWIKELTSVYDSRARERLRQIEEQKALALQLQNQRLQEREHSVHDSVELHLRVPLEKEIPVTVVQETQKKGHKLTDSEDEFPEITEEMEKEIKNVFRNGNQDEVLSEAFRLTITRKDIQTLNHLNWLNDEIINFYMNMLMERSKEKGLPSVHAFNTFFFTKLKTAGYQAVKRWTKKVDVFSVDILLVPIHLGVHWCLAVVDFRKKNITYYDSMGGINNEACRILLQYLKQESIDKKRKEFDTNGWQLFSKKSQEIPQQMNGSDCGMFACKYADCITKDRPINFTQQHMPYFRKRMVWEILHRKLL
The experiment in a line: SENP1 activity assay. The conditions noted are these: MBP-SENP1 1.8 nM, 200 nM SUMO-AMC; pre-incubated 30 minutes at 25° C., 60 minutes at 37° C.; sigmoidal fit. Type of experiment: biochemical. As for the experimental part: The cDNA encoding SENP1 was obtained by PCR amplification from placenta mRNA. SENP1 cDNA was subcloned by PCR into a bacterial expression vector (pMAL-C2X; New England BioLabs, Inc). The sequence was ascertained by sequencing of the entire open reading frame. pMAL-C2-SENP1 was transformed into BL21 cells and grown in LB-ampicillin medium supplemented with glucose (2 g.l^−1). Fusion protein expression was induced by IPTG (0.5 mM). Bacterial cell lysates were harvested and lyzed in lysis buffer (Tris HCl 20 mM pH 7.4; 1 mM EDTA; 200 mM NaCl; 0.5% Triton X-100; 10 % glycerol; Protease Inhibitor Cocktail) followed by sonication. Proteins were affinity purified on amylose affinity resin (New England BioLabs, Inc). Bound materials were extensively washed in wash buffer (20 mM Tris HCl pH 7.4; 200 mM NaCl; 1 mM EDTA; 0.5% Triton X-100; 10% glycerol) and eluted from the resin in 10 mM maltose-containing wash buffer. Proteins were dialyzed in dialysis buffer (Tris HCl pH 7.6 20 mM; NaCl 200 mM; DTT 1 mM; EDTA 1 mM; 10% Glycerol). Proteins purifications were analyzed on 4-12% NuPAGE (Invitrogen).
MBP-SENP1 was diluted in SENP1 buffer (50 mM Tris HCl; 0.5 mM EDTA; 5 mM DTT; 0.01 % Triton X-100; Bovine Serum Albumin 0.05 mg.ml^−1 pH 7.6). Compounds stocks (100 mM) were stored at −20° C. in DMSO. Compounds were tested at the following final concentrations: 100 μM; 33.3 μM; 11.1 μM; 3.7 μM; 1.23 μM; 412 nM; 137 nM; 45.7 nM; 15.2 nM; 5 nM.
Reactions were performed as duplicates in Black LJL 96 well plates (HE microplates; Molecular Devices; 20 μl final reaction volume). The substrate concentration for SENP1 was 200 nM SUMO-AMC (Chem. Biol., 2003, 10, p. 837-846) (Boston Biochem). The concentration of the enzyme (SENP1) in specificity assays was 1.8 nM. The concentrations were determined in order to perform specificity assays under initial velocities at fixed substrate concentration. Compounds were pre-incubated with enzymes for 30 minutes at 25° C. Reactions were initiated by addition of substrate to the plates containing the enzymes (+/− compounds) diluted in assay buffer. Reactions were incubated for 60 minutes at 37° C. Reactions were stopped by adding acetic acid (100 mM final). Readings were performed on a Pherastar Fluorescent Reader (BMG). λ Emission 380 nm; λ Excitation=460 nm. Data (mean values +/− standard deviation) were analyzed as % of control (no compound) and plotted as percentage versus the Log of the compound concentration using GraphPad (Prism). Data were fitted to a sigmoidal model (variable slope).
In the case of `CCc1nnc2nc3c(nn12)C(=O)c1cc(OC)c(OC)cc1-3` [Example 5b/A, 1-Ethyl-6,7-dimethoxy-2,3,4,10,10a-pentaaza-cyclopenta[b]fluoren-9-one], the half-maximal inhibitory concentration (IC50) worked out at 35.7 µM.

As to `CCc1nnc2nc3c(nn12)-c1cc(OC)c(OC)cc1C3=O` [Example 5b/B, 3-Ethyl-6,7-dimethoxy-1,2,3a,4,10-pentaaza-cyclopenta[b]fluoren-9-one], 1.28 µM corresponded to half-maximal inhibition (IC50).

“6-(7)-Chloro-1-methyl-2,3,4,10,10a-pentaaza-cyclopenta[b]fluoren-9-one [Example 3/A]” had a half-maximal inhibitory concentration (IC50) greater than 100 µM.
